Tests used:
Assay in all cases: residual activity after MMTS incubation, coupled assay at […] nm
Assay type in all cases: biochemical
cTPI [1] = target: T1, cTPI (Arabidopsis thaliana, UniProt P48491, C218S); conditions: read-out: MMTS concentration necessary to inhibit 50%
T1 construct: gene CTIMC; homodimer
T1 sequence (P48491 1-254 C218S): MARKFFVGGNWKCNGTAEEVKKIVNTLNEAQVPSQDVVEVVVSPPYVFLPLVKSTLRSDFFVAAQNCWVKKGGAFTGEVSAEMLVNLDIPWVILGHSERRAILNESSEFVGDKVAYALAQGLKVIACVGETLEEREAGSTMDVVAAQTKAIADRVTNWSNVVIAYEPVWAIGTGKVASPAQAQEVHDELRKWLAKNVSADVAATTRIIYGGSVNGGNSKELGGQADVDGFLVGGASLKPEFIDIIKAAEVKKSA

cTPI [2] = target: T2, cTPI (Arabidopsis thaliana, UniProt P48491); conditions: covalent (C13, C218); 3 h incubation at room temperature, 0.184 nM enzyme, TEA pH 7.4, 10 mM EDTA
T2 construct: gene CTIMC; homodimer
T2 sequence (P48491 whole entry): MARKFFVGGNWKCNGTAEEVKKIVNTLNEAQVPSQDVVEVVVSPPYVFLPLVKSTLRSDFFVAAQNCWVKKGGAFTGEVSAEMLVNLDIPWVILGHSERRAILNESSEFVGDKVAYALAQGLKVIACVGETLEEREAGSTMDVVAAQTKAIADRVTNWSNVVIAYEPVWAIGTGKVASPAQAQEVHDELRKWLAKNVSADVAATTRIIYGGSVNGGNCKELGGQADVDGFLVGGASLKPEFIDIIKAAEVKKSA

pdTPI [3] = target: T3, pdTPI (Arabidopsis thaliana, UniProt Q9SKP6); conditions: read-out: 50% of enzymatic activity
T3 construct: gene TIM; homodimer
Target sequence in this assay (Q9SKP6 60-315): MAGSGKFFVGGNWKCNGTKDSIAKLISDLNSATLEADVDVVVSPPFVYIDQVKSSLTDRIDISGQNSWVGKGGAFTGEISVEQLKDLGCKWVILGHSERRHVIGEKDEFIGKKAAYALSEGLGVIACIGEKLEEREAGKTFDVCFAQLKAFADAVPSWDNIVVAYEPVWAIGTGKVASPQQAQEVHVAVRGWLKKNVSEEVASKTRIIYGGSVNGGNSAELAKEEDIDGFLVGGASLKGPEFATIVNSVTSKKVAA

cTPI [4] = target: T4, cTPI (Arabidopsis thaliana, UniProt P48491, C13S)
T4 construct: gene CTIMC; homodimer
T4 sequence (P48491 whole entry C13S): as the sequence (P48491 whole entry) above, with C13S counted along it

pdTPI [5] = target: T3, pdTPI; conditions: covalent (cysteine); 3 h incubation at room temperature, 0.184 nM enzyme, TEA pH 7.4, 10 mM EDTA; MMTS 0-50 µM
Target sequence in this assay (Q9SKP6 60-315 C148S): as the sequence (Q9SKP6 60-315) above, with C89S counted along it

IC50 (cTPI [1]): 125 nM
% decrease of activity at 31.25 nM (cTPI [2]): 90%
IC50 (pdTPI [3]): > 10000 nM
remaining activity at 0.125 µM (cTPI [4]): 70%
Structure (SMILES): CSS(C)(=O)=O [MMTS]
% activity remaining (dose curve) (pdTPI [5]): Mutation pdTPI-C89S is more susceptible to MMTS inhibition

— PMC5138414, “Structural Basis for Redox Regulation of Cytoplasmic and Chloroplastic Triosephosphate Isomerases from Arabidopsis thaliana” (Frontiers in Plant Science, 2016)
